Source: patent US11850266B2, “Cardiomyocytes and compositions and methods for producing the same” (President and Fellows of Harvard College, priority 2019, dated 2023)

Legend:
Assay type in all cases: cell-based, human
[1] = tested on: iPSC-derived cardiomyocytes; assay: qPCR mRNA expression in iPSC-derived cardiomyocytes
Procedure: (§1) To prepare for differentiation, iPSCs were plated at a density between 20,000 to 80,000 cells (depending on the cell line) per well of a 12-well plate at four days prior to onset of differentiation. Cells were differentiated according to the protocol previously described by Lian et al. with some modifications (FIG. 1A) (1). Basal media was changed from StemFlex to RPMI/B27 on day 0 of differentiation. The GSK3 inhibitor, CHIR99021 (6 μM), was added for 48 hours from day 0 to day 2 of differentiation when cells were approximately 70-80% confluent. The Wnt antagonist IWP4 (5 μM) was added from days 2 to 4 of differentiation. Insulin (10 μg/ml) was added to the media starting on day 7 of differentiation, and media was changed every 2-3 days. In general, higher purity (TNNT2+) cardiomyocytes were observed when beating initiated prior to day 10 of differentiation, therefore only batches with onset of beating between days 7-10 of differentiation were included in this study. Beating cardiomyocytes were treated with Torin1 (200 nM, unless otherwise noted) or vehicle (0.02% dimethylsulfoxide (DMSO)) beginning at ˜2 days after onset of beating for 7 days (media changed with fresh Torin1 or DMSO every 2-3 days), unless otherwise noted. After Torin1 treatment, media was switched back to RPMI/B27/insulin and maintained with media change every 2-3 days until endpoint assay. In a few assays, fatty acids were added in the form of chemically defined lipids (Gibco) diluted 1:1000 simultaneous with Torin1 treatment. In some other assays, fetal bovine serum (10% FBS) was added to cells after completion of Torin treatment for 2-4 days.
RNA was extracted from cells using RiboZol (VWR) followed by the E.Z.N.A. Total RNA I kit (Omega) then reverse transcribed to cDNA with the High Capacity cDNA Reverse Transcription kit (Thermo Fisher Scientific) according to the manufacturer's instructions. Quantitative PCR (qPCR) was performed using the iTaq Universal SYBR Green Supermix (Bio-Rad) and the primer pairs listed in Table 1 with a Bio-Rad CFX384 Real-Time thermal cycler. TATA-binding protein (TBP) was used as the housekeeping gene.

[2] = tested on: iPSC-derived cardiomyocytes; assay: Western analysis of protein expression in iPSC-derived cardiomyocytes
Procedure: as §1
Cells were lysed with lysis buffer (1% Triton X, 0.35% Na-deoxycholate, 1 mM EDTA, 1% protease inhibitor cocktail (Sigma), 1% phosphatase inhibitor cocktail 2 (Sigma), 1% phosphatase inhibitor cocktail 3 (Sigma), 1 mM phenylmethylsulfonyl fluoride (PMSF)) and total protein was measured with the Pierce BCA Protein Assay Kit. Samples with equal total protein quantities (prepared in Laemmli Sample Buffer (Bio-Rad)) were loaded into a Mini-Protean TGX Precast Gel (Bio-Rad) and electrophoresed for 1 hour at 100 V before transfer to a PVDF membrane using the Trans-Blot Turbo Transfer System (Bio-Rad). The Precision Plus Protein Dual Color Standards molecular weight ladder was used to estimate molecular weight of detected bands (Bio-Rad). Membranes were blocked with 5% milk or bovine serum albumin then incubated with the primary antibody (Table 2) overnight at 4 degrees C. followed by incubation with the horseradish peroxidase-conjugated secondary antibody (Table 2) for 1 hour at room temperature. The Amersham ECL Western Blotting Detection kit was used to detect the protein signal by chemiluminescence, and band densities were quantified using ImageJ software (NIH).

[3] = tested on: iPSC-derived cardiomyocytes; assay: Spontaneous beating rate of cardiomyocytes
Procedure: The BJRiPS cell line was used to generate preliminary data. BJRiPS cells were differentiated into cardiomyocytes according to previously published protocols (6). After the onset of beating (around day 10), cardiomyocytes were treated with vehicle (DMSO) or different concentrations of rapamycin, Torin1, or Torin2 for different time periods. Beating rate was counted manually. Some cells were harvested after 5-7 days of treatment for flow cytometry analysis. Other cells were harvested after 7 days of treatment for qPCR.

[4] = Torin1 10-200 nM, 7 days, BJRiPS-CMs, FIG. 1E
[5] = Torin1 0-200 nM 4 days prior to harvest on day 22, BJRiPS, FIG. 11

CCC(=O)N1CCN(c2ccc(-n3c(=O)ccc4cnc5ccc(-c6cnc7ccccc7c6)cc5c43)cc2C(F)(F)F)CC1 [Torin1]
mRNA expression of TNNI3, CACNA1c and SERCA2a ([1]; 200 nM Torin1 about two days after onset of beating, BJRiPS, FIGS. 18B-18D): robust increase in mRNA expression | fatty acid transport protein 6 (FATP6) mRNA ([1]; FIG. 3F): increase in mRNA expression | HCN4 mRNA ([1]; FIG. 4A): non-significant trend of increased HCN4 | selected mitochondrial genes (qPCR) or proteins (western) ([1]; FIGS. 13A-13B): Significant changes in selected mitochondrial genes (FIG. 13A) or proteins (FIG. 13B) were not observed | E2F4 mRNA ([1]; Torin1 200 nM from day 9, BJRiPS, FIG. 25B): increased mRNA expression of the inhibitory E2F member, E2F4 | RBL2 (p130) mRNA ([1]; Torin1 200 nM from day 9, FIG. 25C): increased mRNA expression of RBL2 | MDM2 mRNA ([1]; Torin1 200 nM from day 9, FIG. 25D): decreased mRNA expression of the E2 ubiquitin-protein ligase, MDM2 | MYH6, MYH7, TNNT2 mRNA ([1]; Torin1 10, 50, 200 nM, 7 days, BJRiPS-CMs, FIG. 2A): trended toward increased expression | PPARGC1a mRNA expression ([1]; Torin1 10, 50, 200 nM, 7 days, FIG. 3F): dose-dependent increase | cyclin C1 and E2F1 proliferative markers (qPCR) [1, 4]: significant decrease | expression of quiescence markers including p16 and p130 (qPCR) [1, 4]: non-significant trends toward increased expression | KCNJ2, CACNA1c, RYR2, ATP2A2 (SERCA2A), SCN5A mRNA ([1]; Torin1 10 or 200 nM, 7 days, FIG. 4A): significant dose-dependent increase | mRNA expression of p21 ([1]; discussion of Example 1): significantly decreased mRNA expression | TNNI3 mRNA expression ([1]; dose-dependent, Torin1 10, 50, 200 nM, 7 days, FIG. 2A): significantly increased | E2F1 mRNA ([1]; immediately after Torin1 treatment, transient increase at ~5 days, FIG. 25A): trend toward decreased mRNA expression of the stimulatory E2F member, E2F1 | TNNI3 expression by time of Torin1 initiation (qPCR) ([1]; initiation about 2 days after onset of beating, BJRiPS, FIG. 20A): trend toward higher TNNI3 expression | CDKN1a (p21) mRNA ([1]; trend, Torin1 200 nM from day 9, FIG. 25E): decreased mRNA expression of the cyclin inhibitor CDKN1a (p21) | CDK2 mRNA ([1]; trend, Torin1 200 nM from day 9, FIG. 25F): increased mRNA expression of the cyclin-dependent kinase, CDK2 | TNNI1 protein levels ([2]; FIG. 2B, RNA levels not increased): increase in TNNI1 protein levels | GATA4 protein expression ([2]; FIG. 5A): trend toward increased protein expression | expression of fatty acid receptor CD36 ([2]; FIG. 13C, BJRiPS-CM): trend toward increased expression | p21 protein expression ([2]; Torin1 0, 10, 50, 200 nM 7 days, FIG. 5A): dose-dependent decrease | p53 protein (total and phosphorylated) ([2]; Torin1 0, 10, 50, 200 nM 7 days, Gibco iPS-CM, FIG. 5A): dose-dependent increase | TNNI3 protein, late treatment [2, 5]: increases expression of TNNI3 | p21 protein, late treatment [2, 5]: decreases expression of p21 | TNNTI3 by western analysis ([2]; Torin1 10, 50, 200 nM 4 days, BJRiPS, FIGS. 18F-18G): significant increase in TNNTI3 | TNNI3 protein (western, densitometry) ([2]; Torin1 10, 50, 200 nM, 4 days, days 25-29, BJRiPS, FIG. 31): increased protein expression | TNNT2 and TNNI3 protein expression by western analysis ([2]; Torin1 7 days, Gibco iPS-CMs, FIG. 2B): dose-dependent increase | spontaneous rate of contraction ([3]; Example 1, FIG. 4C): decrease | beating rate of cardiomyocytes ([3]; Torin1 10, 50, 200 nM, Torin2 200 nM, from day 11 for 4-5 days, FIG. 29): decreased the beating rate | beating rates at 1 week ([3]; dose-dependent, BJRiPS-CMs, FIG. 29): significantly decreased beating rates
